In patent publication US20230184743A1, “SCREENING METHODS TO IDENTIFY SMALL MOLECULE COMPOUNDS THAT PROMOTE OR INHIBIT THE GROWTH OF CIRCULATING TUMOR CELLS, AND USES THEREOF” (University of Southern California, priority 2020, published 2023):
Entries after “also recorded” stand apart in the source; their conditions may differ.

How the values were obtained:
[1] = test system: GFP-Luciferase tagged BRx68 single clones; test: Xenograft assay of single cell clones generated with or without NAC; format: in vivo; conditions: clones generated with 300 μM NAC for 24 days vs control clones; mammary fat pad of female NSG mice
Experimental: Single CTC clones. NAC clones were generated by treating single CTCs with 300 μM NAC media for 24 days before switching to regular CTC media. Control single clone lines were established in the same batch using regular CTC media.
Xenograft assay and Hematoxyline & Eosin staining. Six-week old female NSG mice (Jackson Laboratory) were anesthetized with isoflurane and 20,000 GFP/luc-positive single clone cells in 100 μL of 1:1 PBS and Corning® Matrigel® Matrix (phenol-red free) were injected into the fourth mammary fat pad. To evaluate the growth of primary tumors, mice were intraperitoneally injected with 150 μL of d-Luciferin substrate at 30 mg/mL (Sid Labs), and imaged within 15 minutes. Signals from luciferase-tagged cells were monitored at day 0 after injection and weekly by in vivo imaging using IVIS Lumina II (Perkin Elmer) for 5 weeks. Mice were sacrificed after 8 weeks, and their organs were dissected and imaged. Primary tumors and organs were collected and fixed with 10% formalin overnight and sectioned for 5 μm thickness. H&E staining was performed using Varistain Gemini ES Automated Slide Stainer in USC's Histology Laboratory (HIST). Images were taken with a 20× objective in Keyence (BZ-II Analyser, Keyence).
Validation on spiked-in CTCs. To mimic the CTC isolation procedure, spiked-in experiments were performed with 3 CTC lines (BRx42, BRx50 and BRx68) into healthy donors' blood. […]

[2] = test system: single CTCs from a patient with breast cancer; test: Culture of freshly isolated single CTCs from patients with breast cancer in NAC containing media; format: cell-based, human; conditions: clones dying after 2 weeks in regular media
Experimental: Patient samples. Ten milliliters of blood was collected from each of a total of 12 patients with breast cancer (stage IV). All experiments were performed following the ethical principles. Informed consents were signed by all patients and/or their legal guardian/s.
Isolation of single CTCs. Single CTCs were detected and retrieved using the negative selection protocol of PIC&RUN assay. Briefly, 7.5 mL of blood was added to each AccuCyte Separation Tube (RareCyte) and tubes were centrifuged twice in a special device to collect buffy coats in 1 mL of CTC media. Buffy coats were stained with a cocktail of immune cell markers (IM) antibodies (CD45, CD14, and CD16) and Cell-Tracker green for 30 min at 37° C. Stained buffy coats were seeded on polyhema coated cyteslides and scanned semi-automatically using RareCyte fluorescence. When a CTC was detected, the Rarecyte ceramic tip needle was operated semi-automatically to pick up the cell of interest in a draw volume of 50 nL to 0.5 μL, and deposit it in a PCR tube contains 50 μL of media. PCR tubes were pulse spun, their contents were moved to a well of a 96-well GravityTRAP ultralow plate (InSphero) and plates were incubated at 37° C., 5% CO2 and 4% 02 for 3 weeks. Media was replaced every 3 to 4 days and cells were checked every week.
NAC rescued the proliferation of freshly isolated CTCs from a patient with breast cancer. […]

[3] = test system: CTC lines (BRx42, BRx50 and BRx68) spiked into healthy donors' blood; test: Spike-in experiment: growth of CTCs isolated from spiked healthy donors' blood; format: cell-based, human; conditions: RosetteSep isolated, cultured 20 days
Experimental: Spike-in experiment. Healthy volunteers' blood samples were collected. GFP-positive CTC lines (50 cells/mL) were spiked into the blood samples from healthy volunteers, and RosetteSep™ CTC Enrichment Cocktail Containing […] was used to enrich CTCs from spiked-in samples. Isolated CTCs were cultured in GravityTRAP™ ULA Plate 96 wells. Each patient CTC cell line was processed by 2 different researchers.
Validation on spiked-in CTCs. To mimic the CTC isolation procedure, spiked-in experiments were performed with 3 CTC lines (BRx42, BRx50 and BRx68) into healthy donors' blood. The RosettSep CTC isolation method was used to isolate the spiked CTCs, and separated isolated CTCs equally into wells with control media or with NAC or NAC plus P1C2. […] This confirmed the effects of these compounds on expanding CTCs that have been processed through an isolation procedure. NAC single cell clones form tumors with similar kinetics as controls. It was noticed that the most critical phase is the initial expansion from single CTCs. […] Therefore, treatment of these compounds was stopped at 24 days, and then prolonged the culture to generate several single cell clones. To evaluate the tumorigenicity of the single cell clones, GFP-Luciferase tagged BRx68 single clones generated with NAC treatment or control clones were injected into the mammary fat pats of female NSG mice.

## CC(=O)N[C@@H](CS)C(=O)O [NAC, N-acetyl-L-cysteine]
[1]
  tumorigenicity of single cell clones (tumor growth kinetics and histology): dose not change the tumorigenicity; also recorded: did not significantly affect
[2]
  proliferation of freshly isolated patient CTC clone after switch to NAC containing media: rescued a CTC clone; also recorded: recovered and resumed proliferation
[3]
  growth of isolated CTCs compared to the control condition: promote growth of small numbers of CTCs; also recorded: significantly increased
